Results reported in patent publication US10752587B2, “Homobispiperidinyl derivatives as liver X receptor beta agonists, compositions and their use” (Merck Sharp & Dohme Corp., priority 2015, dated 2020).
Where two headings read alike, the source gives them in different places.

How the values were obtained:
[1] = biological target: T1, glutathione-S-transferase (GST) tagged LXRalpha LBD (ligand binding domain) (Homo sapiens, UniProt Q13133); assay: LanthaScreen TR-FRET Liver X Receptor Coactivator Assay, co-activator recruitment to LXRalpha LBD; format: biochemical; details: for Emax: read-out: LXR alpha Activity @ max dose (%); for LXR alpha IP (nM) / EC50: potency (Inflection Point, IP), co-activator recruitment to LXRalpha LBD, in relation to T0901317; for EC50: read-out: LXR alpha IP
T1 construct: purchased Invitrogen pv4655
T1 sequence (Q13133 209-447 limits assumed): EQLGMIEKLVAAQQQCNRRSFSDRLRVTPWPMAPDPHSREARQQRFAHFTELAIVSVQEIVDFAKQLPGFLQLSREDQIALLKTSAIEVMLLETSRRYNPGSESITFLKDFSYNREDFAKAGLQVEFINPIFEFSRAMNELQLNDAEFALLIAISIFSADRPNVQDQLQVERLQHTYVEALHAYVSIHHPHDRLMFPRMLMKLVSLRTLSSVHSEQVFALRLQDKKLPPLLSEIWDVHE
Method in brief: (§1)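 GST-tagged LBD added to test compound, then fluorescein-labelled coactivator peptide plus terbium anti-GST antibody; incubated at room temperature, TR-FRET read. Potency given as inflection point and efficacy as Emax relative to reference dual agonist T0901317.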

[2] = biological target: T2, glutathione-S-transferase (GST) tagged LXRbeta LBD (ligand binding domain) (Homo sapiens, UniProt P55055); assay: LanthaScreen TR-FRET Liver X Receptor Coactivator Assay, co-activator recruitment to LXRbeta LBD; format: biochemical; details: for Emax: read-out: LXR beta Activity @ max dose (%); for EC50: potency (Inflection Point, IP), co-activator recruitment to LXRbeta LBD, in relation to T0901317
T2 construct: purchased Invitrogen pv4658.pps
T2 sequence (P55055 222-460 limits assumed): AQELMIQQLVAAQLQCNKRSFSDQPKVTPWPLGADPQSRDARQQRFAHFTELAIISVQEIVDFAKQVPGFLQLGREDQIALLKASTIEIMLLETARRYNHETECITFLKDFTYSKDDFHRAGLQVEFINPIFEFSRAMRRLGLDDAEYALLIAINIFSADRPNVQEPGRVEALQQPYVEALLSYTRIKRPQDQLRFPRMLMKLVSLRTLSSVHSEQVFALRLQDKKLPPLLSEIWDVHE
Method in brief: as §1

[3] = efficacy at max dose, in relation to reference dual agonist T0901317

Row | SMILES | Emax [1, 3] [%] | LXR alpha IP (nM) [1] | Emax [2, 3] [%] | EC50 ([2]; read-out: LXR beta IP) [nM] | EC50 [1] [nM] | Emax [1] [%] | EC50 ([2]; LXR beta IP (nM)) [nM] | Emax [2] [%]
1 | CN(C)C(=O)c1ccc(N2CCC(CC3CCN(C(=O)[C@](O)(c4cccc(O)c4)C(F)(F)F)CC3)CC2)cc1Cl [Example 2-87, 2-chloro-N,N-dimethyl-4-[4-({1-[(2R)-3,3,3-trifluoro-2-hydroxy-2-(3-hydroxyphenyl)propanoyl]piperidin-4-yl}methyl)piperidin-1-yl]benzamide] | 14 | NO IP | 74 | 19 |  |  |  | 
2 | CN(C)C(=O)c1ccc(N2CCC(CC3CCN(C(=O)[C@](O)(c4cccc(C#N)c4)C(F)(F)F)CC3)CC2)cc1Cl [Example 2-88, 2-chloro-4-[4-({1-[(2R)-2-(3-cyanophenyl)-3,3,3-trifluoro-2-hydroxy-propanoyl]piperidin-4-yl}methyl)piperidin-1-yl]-N,N-dimethyl-benzamide] | 29 |  | 79 | 11 | 137 |  |  | 
3 | COc1cccc([C@@](O)(C(=O)N2CCC(CC3CCN(c4ccc(C(=O)N(C)C)c(Cl)c4)CC3)CC2)C(F)(F)C(F)(F)F)c1 [Example 2-89, 2-chloro-N,N-dimethyl-4-[4-({1-[(2R)-3,3,4,4,4-pentafluoro-2-hydroxy-2-{3-methoxyphenyl)butanoyl]piperidin-4-yl}methyl)piperidin-1-yl]benzamide] | 23 |  | 83 | 21 | 304 |  |  | 
4 | CN(C)C(=O)c1ccc(N2CCC(CC3CCN(C(=O)C(O)(c4cccnc4)C(F)(F)F)CC3)CC2)cc1Cl (stereo not shown) [Example 2-90, 2-chloro-N,N-dimethyl-4-(4-{[1-(3,3,3-trifluoro-2-hydroxy-2-pyridin-3-ylpropanoyl)piperidin-4-yl]methyl}piperidin-1-yl)benzamide] | 46 |  | 99 | 78 | 3550 |  |  | 
5 | CN(C)C(=O)c1ccc(N2CCC(CC3CCN(C(=O)[C@](O)(c4cccc(OC(F)(F)F)c4)C(F)(F)F)CC3)CC2)cc1Cl [Example 2-91, 2-chloro-N,N-dimethyl-4-{4-[(1-{(2R)-3,3,3-trifluoro-2-hydroxy-2-[3-(trifluoro-methoxy)phenyl]propanoyl}piperidin-4-yl)methyl]piperidin-1-yl}benzamide] | 20 |  | 58 | 23 | 199 |  |  | 
6 | CCOc1cccc([C@@](O)(C(=O)N2CCC(CC3CCN(c4ccc(C(=O)N(C)C)c(Cl)c4)CC3)CC2)C(F)(F)F)c1 [Example 2-92, 2-chloro-4-[4-({1-[(2R)-2-(3-ethoxyphenyl)-3,3,3-trifluoro-2-hydroxy-propanoyl]piperidin-4-yl}methyl)piperidin-1-yl]-N,N-dimethyl-benzamide] | 3 | NO IP | 56 | 12 |  |  |  | 
7 | CN(C)C(=O)c1ccc(N2CCC(CC3CCN(C(=O)[C@](O)(c4cc(Cl)cc(Cl)c4)C(F)(F)F)CC3)CC2)cc1Cl [Example 2-93, 2-chloro-4-[4-({1-[(2R)-2-(3,5-dichloro-phenyl)-3,3,3-trifluoro-2-hydroxy-propanoyl]piperidin-4-yl}methyl)piperidin-1-yl]-N,N-dimethyl-benzamide] | 7 | NO IP | 59 | 5 |  |  |  | 
8 | CN(C)C(=O)c1ccc(N2CCC(CC3CCN(C(=O)[C@](O)(c4cc(F)cc(F)c4)C(F)(F)F)CC3)CC2)cc1Cl [Example 2-94, 2-chloro-4-[4-({1-[(2R)-2-(3,5-difluoro-phenyl)-3,3,3-trifluoro-2-hydroxy-propanoyl]piperidin-4-yl}methyl)piperidin-1-yl]-N,N-dimethyl-benzamide] | 48 |  | 89 | 4 | 50 |  |  | 
9 | CC(C)c1cccc([C@@](O)(C(=O)N2CCC(CC3CCN(c4ccc(C(=O)N(C)C)c(Cl)c4)CC3)CC2)C(F)(F)F)c1 [Example 2-95, 2-chloro-N,N-dimethyl-4-{4-[(1-{(2R)-3,3,3-trifluoro-2-hydroxy-2-[3-(1-methylethyl)phenyl]propanoyl}piperidin-4-yl)methyl]piperidin-1-yl}benzamide] | 15 |  | 50 | 6 | 341 |  |  | 
10 | CN(C)C(=O)c1ccc(N2CCC(CC3CCN(C(=O)[C@](O)(c4cccc(C5CC5)c4)C(F)(F)F)CC3)CC2)cc1Cl [Example 2-96, 2-chloro-4-[4-({1-[(2R)-2-(3-cyclopropyl-phenyl)-3,3,3-trifluoro-2-hydroxy-propanoyl]piperidin-4-yl}methyl)piperidin-1-yl]-N,N-dimethyl-benzamide] | 20 |  | 63 | 4 | 66 |  |  | 
11 | CN(C)C(=O)c1ccc(N2CCC(CC3CCN(C(=O)[C@](O)(c4cccc(OCC(F)(F)F)c4)C(F)(F)F)CC3)CC2)cc1Cl [Example 2-97, 2-chloro-N,N-dimethyl-4-{4-[(1-{(2R)-3,3,3-trifluoro-2-hydroxy-2-[3-(2,2,2-trifluoroethoxy)phenyl]propanoyl}piperidin-4-yl)methyl]piperidin-1-yl}benzamide] | 0 | NO IP | 20 | 40 |  |  |  | 
12 | CN(C)C(=O)c1ccc(N2CCC(CC3CCN(C(=O)[C@](O)(c4cccc(N(C)C)c4)C(F)(F)F)CC3)CC2)cc1Cl [Example 2-98] | 0 | NO IP | 20 | 8 |  |  |  | 
13 | CN(C)C(=O)c1ccc(N2CCC(CC3CCN(C(=O)[C@](O)(c4cccc(OC5CC5)c4)C(F)(F)F)CC3)CC2)cc1Cl [Example 2-99, 2-chloro-4-{4-[(1-{(2R)-2-[3-(cyclopropyloxy)phenyl]-3,3,3-trifluoro-2-hydroxy-propanoyl}piperidin-4-yl)methyl]piperidin-1-yl}-N,N-dimethyl-benzamide] | 0 | NO IP | 37 | 8 |  |  |  | 
14 | COc1cc(Cl)cc([C@@](O)(C(=O)N2CCC(CC3CCN(c4ccc(C(=O)N(C)C)c(Cl)c4)CC3)CC2)C(F)(F)F)c1 [Example 2-100, 2-chloro-4-[4-({1-[(2R)-2-(3-chloro-5-methoxy-phenyl)-3,3,3-trifluoro-2-hydroxy-propanoyl]piperidin-4-yl}methyl)piperidin-1-yl]-N,N-dimethyl-benzamide] | 0 | NO IP | 24 | 6 |  |  |  | 
15 | CN(C)C(=O)c1ccc(N2CCC(CC3CCN(C(=O)[C@](O)(c4cc(F)cc(Cl)c4)C(F)(F)F)CC3)CC2)cc1Cl [Example 2-102, 2-chloro-4-[4-({1-[(2R)-2-(3-chloro-5-fluorophenyl)-3,3,3-trifluoro-2-hydroxy-propanoyl]piperidin-4-yl}methyl)piperidin-1-yl]-N,N-dimethyl-benzamide] | 36 |  | 81 | 2 | 29 |  |  | 
16 | COc1cccc([C@@](N)(C(=O)N2CCC(CC3CCN(c4ccc(C(=O)N(C)C)c(Cl)c4)CC3)CC2)C(F)(F)F)c1 [Example 2-103, 4-[4-({1-[(2R)-2-amino-3,3,3-trifluoro-2-(3-methoxyphenyl)propanoyl]piperidin-4-yl}methyl)piperidin-1-yl]-2-chloro-N,N-dimethyl-benzamide] | 0 | NO IP | 16 | 181 |  |  |  | 
17 | COc1cccc(C(=O)C(=O)N2CCC(CC3CCN(c4ccc(C(=O)N(C)C)c(Cl)c4)CC3)CC2)c1 [Example 2-104, 2-chloro-4-[4-({1-[(3-methoxyphenyl) (oxo)acetyl]piperidin-4-yl}methyl)piperidin-1-yl]-N,N-dimethyl-benzamide] | 3 | NO IP | 31 | 409 |  |  |  | 
18 | CN(C)C(=O)c1ccc(N2CCC(CC3CCN(C(=O)[C@](O)(c4ccccc4)C4CC4)CC3)CC2)cc1Cl [Example 2-105, 2-chloro-4-[4-({1-[(2R)-2-cyclopropyl-2-hydroxy-2-phenylacetyl]piperidin-4-yl}methyl)piperidin-1-yl]-N,N-dimethyl-benzamide] |  | NO IP |  |  |  | 12 | 21 | 48
19 | COc1cccc([C@@](O)(C(=O)N2CCC(CC3CCN(c4ccc(C(=O)N(C)C)c(Cl)c4)CC3)CC2)C(F)F)c1 [Example 2-106, 2-chloro-4-[4-({1-[(2R)-3,3-difluoro-2-hydroxy-2-(3-methoxy-phenyl)propanoyl]piperidin-4-yl}methyl)piperidin-1-yl]-N,N-dimethyl-benzamide] | 0 | NO IP | 19 | 10 |  |  |  | 
